Assay [1] addresses T1, GSTP1-1 (glutathione transferase P1-1) (Homo sapiens, UniProt P09211). The assay is described as follows: CDNB-GSH conjugation assay in buffer A, pH […] °C (partial, max […] inhibition; K iapp […] without Triton); also intrinsic protein fluorescence quenching with and without GSH. The format is biochemical.
The target of assay [2] is T1, GSTP1-1 (glutathione transferase P1-1). The assay is described as follows: CDNB-GSH conjugation assay in buffer B (no detergent), pH […] °C. The format is biochemical.

T1 sequence (P09211 2-210): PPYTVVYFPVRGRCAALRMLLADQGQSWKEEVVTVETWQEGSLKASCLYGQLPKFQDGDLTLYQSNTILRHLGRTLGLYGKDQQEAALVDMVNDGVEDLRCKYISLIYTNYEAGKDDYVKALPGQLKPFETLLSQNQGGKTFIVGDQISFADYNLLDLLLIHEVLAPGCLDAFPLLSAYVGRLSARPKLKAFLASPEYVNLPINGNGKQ

In general, Ki refers to the equilibrium dissociation constant of an inhibitor or competing ligand from its target. Take `O=C(OCCCCCCSc1ccc([N+](=O)[O-])c2nonc12)c1ccccc1` [compound 2, 6-((7 nitrobenzo[c][1,2,5]oxadiazol-4-yl)thio)hexyl benzoate]: in assay [1], the Ki amounted to 3900 nM. That is a single-digit micromolar value.
Turning to `CC(=O)OCCCCCCSc1ccc([N+](=O)[O-])c2nonc12` [compound 3, MC2752], the affinity in assay [2], expressed as Ki, was 600 nM.
